Results as given in article PMC3799874 (Bioorganic & medicinal chemistry letters, 2012).
Marks after values point to notes of the source that are not given here.

Key:
[1] = biological target: T1, rat TRPV1 heterologously expressed in Chinese hamster ovary (CHO) cells (Rattus norvegicus, UniProt O35433); assay type: binding
[2] = biological target: T1, rat TRPV1 heterologously expressed in Chinese hamster ovary (CHO) cells; assay type: cell-based

T1 sequence (O35433 whole entry): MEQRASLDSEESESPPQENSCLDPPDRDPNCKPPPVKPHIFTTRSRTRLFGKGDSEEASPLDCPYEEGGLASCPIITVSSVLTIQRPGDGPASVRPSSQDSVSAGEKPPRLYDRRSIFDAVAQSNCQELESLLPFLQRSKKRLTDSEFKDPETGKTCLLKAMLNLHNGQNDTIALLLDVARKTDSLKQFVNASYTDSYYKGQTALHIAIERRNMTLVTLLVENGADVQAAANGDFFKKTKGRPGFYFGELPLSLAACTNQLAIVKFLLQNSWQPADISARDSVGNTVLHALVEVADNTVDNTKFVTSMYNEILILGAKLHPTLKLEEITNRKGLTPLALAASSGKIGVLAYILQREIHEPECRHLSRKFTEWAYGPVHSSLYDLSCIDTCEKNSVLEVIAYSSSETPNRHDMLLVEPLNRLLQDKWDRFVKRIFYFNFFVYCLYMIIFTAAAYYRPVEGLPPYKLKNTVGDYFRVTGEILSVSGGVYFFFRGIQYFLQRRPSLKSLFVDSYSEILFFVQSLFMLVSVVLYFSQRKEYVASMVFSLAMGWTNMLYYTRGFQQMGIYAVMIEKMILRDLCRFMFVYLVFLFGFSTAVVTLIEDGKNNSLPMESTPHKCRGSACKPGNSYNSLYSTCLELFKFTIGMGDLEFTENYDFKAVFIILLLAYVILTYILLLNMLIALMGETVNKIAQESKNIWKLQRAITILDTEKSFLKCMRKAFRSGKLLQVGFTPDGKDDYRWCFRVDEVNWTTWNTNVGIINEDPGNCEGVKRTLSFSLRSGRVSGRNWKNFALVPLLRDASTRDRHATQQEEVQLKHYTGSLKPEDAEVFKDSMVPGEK

## COc1cc(C(C)C(=O)NCc2ccc(C(C)(C)C)cc2)ccc1O (stereo not shown) [8a]
[1]
  enhancement in binding affinity compared to non-methylated parent: 2 fold
[2]
  enhancement in agonism compared to non-methylated parent: 3 fold

## CC(C(=O)NCc1ccc(C(C)(C)C)cc1)c1ccc(O)c(F)c1 (stereo not shown) [8b]
[1]
  enhancement in binding affinity compared to non-methylated parent: ca. 4.5 fold

## CC(C(=O)NCc1ccc(C(C)(C)C)cc1)c1ccc(O)c(Cl)c1 (stereo not shown) [8c]
[1]
  enhancement in binding affinity compared to non-methylated parent: ~4 fold
[2]
  fractional calcium uptake compared with that induced by 300 nM capsaicin: (77%) ^a

## CC(C)(C)c1ccc(CNC(=O)Cc2ccc(OCCN)c(F)c2)cc1 [10b]
[2]
  fractional calcium uptake compared with that induced by 300 nM capsaicin: (63%) ^a

## CC(C)(C)c1ccc(CNC(=O)Cc2ccc(OCCN)c(Cl)c2)cc1 [10c]
[2]
  fractional calcium uptake compared with that induced by 300 nM capsaicin: (36%) ^a

## CC(C(=O)NCc1ccc(C(C)(C)C)cc1)c1ccc(OCCN)c(F)c1 (stereo not shown) [14b]
[2]
  fractional calcium uptake compared with that induced by 300 nM capsaicin: (91%) ^a

## CC(C(=O)NCc1ccc(C(C)(C)C)cc1)c1ccc(OCCN)c(Cl)c1 (stereo not shown) [14c]
[2]
  fractional calcium uptake compared with that induced by 300 nM capsaicin: (75%) ^a

## CCCCCCCCCNC(=O)C(C)c1ccc(O)c(OC)c1 (stereo not shown) [compound 19]
[1]
  enhancement in binding affinity compared to non-methylated parent: 1.5–2 fold
[2]
  enhancement in agonism compared to non-methylated parent: 1.5–2 fold

## COc1cc(C(C)C(=O)NCCCc2ccc(C)c(C)c2)ccc1O (stereo not shown) [compound 20]
[1]
  enhancement in binding affinity compared to non-methylated parent: 1.5–2 fold
[2]
  enhancement in agonism compared to non-methylated parent: 1.5–2 fold

## COc1cc(C(C)C(=O)NCCCc2ccc(C)c(C)c2)ccc1OCCN (stereo not shown) [compound 22]
[1]
  increase in receptor activity compared to DA-5018: ca. 2 fold

## COc1cc(C(C)NC(=S)NCc2ccc(C(C)(C)C)cc2)ccc1O (stereo not shown) [compound 32]
[1]
  reduction (loss) in binding affinity compared to non-methylated parent: 3 fold

## COc1cc(C(C)NC(=S)NCc2ccc(C(C)(C)C)cc2)ccc1OCCN (stereo not shown) [compound 36]
[1]
  reduction (loss) in binding affinity compared to non-methylated parent: 17 fold
